From patent US9605027B2, “Polypeptides that bound to IL-23 receptor and inhibit binding of IL-23 and cell signaling thereof” (Medical Diagnostic Laboratories, LLC, priority 2011, dated 2017)
Entries after “also recorded” stand apart in the source; their conditions may differ. Peptide text beside a SMILES is read from it.

Key:
[1] = biological target: T1, Recombinant human IL-23R-Fc (Homo sapiens, UniProt Q5VWK5); test: Competitive ELISA, IL-23 binding to IL-23R; settings: for inhibition of IL-23 binding to its receptor by modified polypeptides, Competitive ELISA: procedure of Example 6, compared with parent polypeptide
T1 construct: has the protein portion between the 24 amino acid residue to 353 amino acid residue; purchased R&D Systems 1400-IR-050
T1 sequence (Q5VWK5 24-353): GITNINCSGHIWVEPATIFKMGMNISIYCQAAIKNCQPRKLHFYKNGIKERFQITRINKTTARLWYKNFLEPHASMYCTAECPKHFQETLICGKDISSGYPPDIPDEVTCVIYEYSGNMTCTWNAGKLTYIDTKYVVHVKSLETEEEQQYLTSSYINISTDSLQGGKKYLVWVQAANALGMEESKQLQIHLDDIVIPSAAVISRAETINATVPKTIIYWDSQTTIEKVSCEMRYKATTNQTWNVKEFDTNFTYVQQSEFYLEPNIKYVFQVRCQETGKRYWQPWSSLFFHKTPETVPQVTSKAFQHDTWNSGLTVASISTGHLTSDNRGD
Method: The novel polypeptides were tested for their ability to inhibit IL-23 using a Competitive ELISA. In such an assay, IL-23R/Fc fusion protein was immobilized on a solid support. In this instance, the solid support was a 96-well plate, but the support may be any support that is typically used for an ELISA. The novel polypeptide and IL-23 were allowed to compete for binding to the immobilized IL-23R/Fc fusion protein. IL-23 that bound to IL-23R-Fc was detected using biotinylated anti-p40 antibody. The bound anti-p40 antibody was detected using streptavidin-horseradish peroxidase (HRP) and a tetramethylbenzidine (TMB) substrate was added to measure peroxidase activity. The color was measured at optical density (OD) 450nm. The color intensity was directly proportional to the amount of the bound IL-23 protein. […] (See, FIG. 16.)
(§1) FIG. 12 is a schematic depiction of the Competitive ELISA. Recombinant human IL-23R-Fc (2 μg/ml) was coated onto microtiter plates as a capture reagent. IL-23 and polypeptides were added to compete for binding to the immobilized IL-23R-Fc. IL-23 that bound to IL-23R-Fc was detected using biotinylated anti-p40 antibody (1:250). The bound anti-p40 antibody was detected using streptavidin-horseradish peroxidase (HRP) (1:500) and 100 μl/well of a tetramethylbenzidine (TMB) substrate was added to measure peroxidase activity. The color was measured at optical density (OD) 450nm. (See, FIG. 12). The color intensity was directly proportional to the amount of the bound IL-23 protein.
as §1, with “Recombinant” for “FIG. 12 is a schematic depiction of the Competitive ELISA. Recombinant”, “IL-23R-Fc. 50 μg human IL-23 (Cat. No. HZ-1048) (Humanzyme, Chicago, Ill.) in the presence or absence of 100 μM peptides was added to the well and incubated at 4° C. overnight.” for “IL-23R-Fc.”, “450nm.” for “450nm. (See, FIG. 12).”

[2] = biological target: T2, mouse IL-23R (Mus musculus, UniProt Q8K4B4); test: Competitive mouse ELISA, mouse IL-23 binding to mouse IL-23R; settings: mouse IL-23 / mouse IL-23R-Fc; read-out: IC50, Competitive ELISA in mouse system
T2 sequence (Q8K4B4 24-644): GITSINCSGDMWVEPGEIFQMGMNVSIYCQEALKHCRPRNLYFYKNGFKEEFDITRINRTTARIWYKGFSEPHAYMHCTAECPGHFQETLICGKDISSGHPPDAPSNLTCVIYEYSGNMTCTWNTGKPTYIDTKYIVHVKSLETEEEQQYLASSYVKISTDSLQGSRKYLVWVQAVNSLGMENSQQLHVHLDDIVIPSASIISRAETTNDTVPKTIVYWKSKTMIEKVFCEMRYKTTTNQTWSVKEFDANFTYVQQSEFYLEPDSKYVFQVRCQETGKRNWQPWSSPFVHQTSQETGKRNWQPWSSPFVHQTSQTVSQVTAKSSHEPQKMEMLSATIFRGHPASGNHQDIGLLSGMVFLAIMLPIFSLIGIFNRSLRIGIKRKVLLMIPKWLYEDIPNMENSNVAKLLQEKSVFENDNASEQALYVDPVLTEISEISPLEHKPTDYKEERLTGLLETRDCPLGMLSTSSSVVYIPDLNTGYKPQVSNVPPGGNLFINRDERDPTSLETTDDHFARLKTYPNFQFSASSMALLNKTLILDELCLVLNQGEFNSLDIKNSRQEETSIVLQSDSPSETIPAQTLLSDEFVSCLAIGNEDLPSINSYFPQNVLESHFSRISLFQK
From the text: In this study, we tested if the cyclic polypeptide no. 23.15, cyclic polypeptide no. 23.19 and the isolated polypeptide 23.15-Fc fusion protein could inhibit binding of mouse IL-23 to mouse IL-23R. Mouse IL-23 (p19 Gene Accession #: NM_031252; p40 Gene Accession #: NM_008352), the sequence of which is incorporated herein by reference. Mouse IL-23R (Gene Accession #: NM_144548), the sequence of which is incorporated herein by reference. To do so, we performed the Competitive ELISA.
FIG. 46 is a schematic depiction of the Competitive ELISA in mouse. Recombinant mouse IL-23R-Fc (2 μg/ml) was coated onto microtiter plates as a capture reagent. Mouse IL-23 and polypeptide or isolated peptide-Fc fusion protein were added to compete for binding to the immobilized mouse IL-23R-Fc. Mouse IL-23 that bound to mouse IL-23R-Fc was detected using biotinylated anti-p40 antibody (1:250). The bound anti-p40 antibody was detected using streptavidin-horseradish peroxidase (HRP) (1:500) and 100 μl/well of a tetramethylbenzidine (TMB) substrate was added to measure peroxidase activity. The color was measured at optical density (OD) 450nm. The color intensity was directly proportional to the amount of the bound mouse IL-23 protein.
The isolated polypeptide no. 23.15-Fc fusion protein, cyclic polypeptide no. 23.19 and polypeptide no. […] The IC50 values were calculated.

| IC50 ([1]; human IL-23 / IL-23R-Fc, read-out: IC50, cell-free competitive ELISA) | IC50 [2] | Structure (SMILES) | inhibition of IL-23 binding to its receptor by modified polypeptides, Competitive ELISA [1] |
| --- | --- | --- | --- |
| 0.0081 µM |  | CSCC[C@@H]1NC(=O)[C@H](CCCCN)NC(=O)[C@H](C)NC(=O)[C@H](C)NC(=O)[C@H](CS)NC(=O)[C@H](CC(N)=O)NC(=O)[C@H](CCCCN)NC(=O)[C@H](CC(C)C)NC(=O)[C@H](Cc2c[nH]c3ccccc23)NC(=O)[C@H](Cc2ccc(O)cc2)NC(=O)[C@H](CC(=O)O)NC(=O)[C@H](C(C)C)NC(=O)[C@H](Cc2c[nH]c3ccccc23)NC(=O)[C@H]([C@@H](C)O)NC1=O [2HT AA] (cyclo(AAKMTWVDYWLKNC)) | did not abrogate the polypeptides' ability; also recorded: best inhibitory activity |
|  | 12.5 µM | CSCC[C@@H]1NC(=O)[C@H](C)NC(=O)[C@@H](N)CSSC[C@@H](C(=O)O)NC(=O)[C@H](CCCNC(=N)N)NC(=O)CNC(=O)[C@H](Cc2ccc(O)cc2)NC(=O)[C@H](CC(C)C)NC(=O)[C@H](Cc2c[nH]c3ccccc23)NC(=O)[C@H](Cc2ccc(O)cc2)NC(=O)[C@H](CC(=O)O)NC(=O)[C@H](CCC(N)=O)NC(=O)[C@H](Cc2c[nH]c3ccccc23)NC(=O)[C@H]([C@@H](C)O)NC1=O [23.19] | equally effective |
